Data as given in patent publication US20230081426A1, “COMPOUNDS AND METHODS FOR KRAS MODULATION AND INDICATIONS THEREFOR” (Plexxikon Inc., priority 2020, published 2023).

Tests used:
[1] = biological target: T1, G12D-mutant human KRAS (amino acid residues 1-188) (Homo sapiens, UniProt P01116, G12D); assay: KRAS Binding Disruption Assay (AlphaScreen; biotinylated KRpep-2d analogue or RAF1-RBD), G12D; conditions: KRAS G12D; geometric mean; read-out: KRAS GMean IC50 (uM) MUTATION: G12D
T1 construct: G12D or G12C-mutant human KRAS (amino acid residues 1-188) with FLAG tag; made in house; host or cells: E. coli
Method in brief: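 Displacement format with mutant KRAS, biotinylated KRpep-2d analogue or RAF1-RBD (5-20 nM each) at pH 7.5 with 5 mM MgCl2.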

[2] = biological target: T2, G12V-mutant human KRAS (amino acid residues 1-188) (Homo sapiens, UniProt P01116, G12V); assay: KRAS Binding Competition Assay (AlphaScreen; biotinylated KRpep-2d analogue), G12V; conditions: geometric mean, read-out: KRAS GMean IC50 (uM) MUTATION: G12V
T2 construct: G12V-mutant human KRAS (amino acid residues 1-188) with FLAG tag was purified from E. coli; made in house; host or cells: E. coli

Row | SMILES | IC50 [1] [µM] | IC50 [2] [µM]
1 | CN1CCC[C@H]1COc1nc(N2C[C@H]3CC[C@@H](C2)N3)c2ccc(Nc3n[nH]c4c(F)cccc34)c(F)c2n1 [P-0438, 4-((1R,5S)-3,8-diazabicyclo[3.2.1]octan-3-yl)-8-fluoro-N-(7-fluoro-1H-indazol-3-yl)-2-(((S)-1-methylpyrrolidin-2-yl)methoxy)quinazolin-7-amine] | 10 to 100 | 10 to 100
2 | Oc1cc(-c2ccc3c(N4C[C@H]5CC[C@@H](C4)N5)nc(CCN4CCCC4)nc3c2F)c2ccccc2c1 [P-0439, 4-(4-((1R,5S)-3,8-diazabicyclo[3.2.1]octan-3-yl)-8-fluoro-2-(2-(pyrrolidin-1-yl)ethyl)quinazolin-7-yl)naphthalen-2-ol] | 0.0001 to 10 | 10 to 100
3 | C[C@H]1CCCN1CCc1nc(N2C[C@H]3CC[C@@H](C2)N3)c2ccc(-c3cc(O)cc4ccccc34)c(F)c2n1 [P-0440, 4-(4-((1R,5S)-3,8-diazabicyclo[3.2.1]octan-3-yl)-8-fluoro-2-(2-((S)-2-methylpyrrolidin-1-yl)ethyl)quinazolin-7-yl)naphthalen-2-ol] | 0.0001 to 10 | 10 to 100
4 | Fc1cc2c(N3C[C@H]4CC[C@@H](C3)N4)nc(OCC34CCCN3CCC4)nc2c(F)c1-c1c[nH]c2ccc(Cl)c(F)c12 [P-0441, 4-((1R,5S)-3,8-diazabicyclo[3.2.1]octan-3-yl)-7-(5-chloro-4-fluoro-1H-indol-3-yl)-6,8-difluoro-2-((tetrahydro-1H-pyrrolizin-7a(5H)-yl)methoxy)quinazoline] | 0.0001 to 10 | 0.0001 to 10
5 | Cc1cccc2cccc(-c3ccc4c(N5C[C@H]6CC[C@@H](C5)N6C(=O)CC#N)nc(OCC56CCCN5CCC6)nc4c3F)c12 [P-0442, 3-((1R,5S)-3-(8-fluoro-7-(8-methylnaphthalen-1-yl)-2-((tetrahydro-1H-pyrrolizin-7a(5H)-yl)methoxy)quinazolin-4-yl)-3,8-diazabicyclo[3.2.1]octan-8-yl)-3-oxopropanenitrile] | 10 to 100 | 0.0001 to 10
6 | CN1CCC[C@H]1COc1nc(N2C[C@H]3CC[C@@H](C2)N3)c2cnc(N3CC(=O)Nc4cccc(Cl)c43)c(F)c2n1 [P-0444, 4-(4-((1R,5S)-3,8-diazabicyclo[3.2.1]octan-3-yl)-8-fluoro-2-(((S)-1-methylpyrrolidin-2-yl)methoxy)pyrido[4,3-d]pyrimidin-7-yl)-5-chloro-3,4-dihydroquinoxalin-2(1H)-one] | 10 to 100 | 100 to 1000
7 | CN(C)Cc1nc(N2C[C@H]3CC[C@@H](C2)N3)c2cc(Cl)c(-c3c(O)cccc3F)c(F)c2n1 [P-0445, 2-(4-((1R,5S)-3,8-diazabicyclo[3.2.1]octan-3-yl)-6-chloro-2-((dimethylamino)methyl)-8-fluoroquinazolin-7-yl)-3-fluorophenol] | 10 to 100 | 10 to 100
8 | O=C1c2ccccc2C(=O)N1Cc1nc(N2C[C@H]3CC[C@@H](C2)N3)c2cc(Cl)c(-c3c(O)cccc3F)c(F)c2n1 [P-0446, 2-((4-((1R,5S)-3,8-diazabicyclo[3.2.1]octan-3-yl)-6-chloro-8-fluoro-7-(2-fluoro-6-hydroxyphenyl)quinazolin-2-yl)methyl)isoindoline-1,3-dione] | 10 to 100 | 10 to 100
9 | CN1CCC[C@H]1COc1nc(N2C[C@H]3CC[C@@H](C2)N3C(=O)CC2SC(=O)NC2=O)c2cc(Cl)c(-c3cc(O)cc4ccccc34)c(F)c2n1 (stereo partly drawn) [P-0447, 5-(2-((1R,5S)-3-(6-chloro-8-fluoro-7-(3-hydroxynaphthalen-1-yl)-2-(((S)-1-methylpyrrolidin-2-yl)methoxy)quinazolin-4-yl)-3,8-diazabicyclo[3.2.1]octan-8-yl)-2-oxoethyl)thiazolidine-2,4-dione] | 0.0001 to 10 | 0.0001 to 10
10 | Fc1cc2c(N3C[C@H]4CC[C@@H](C3)N4)nc(OCC34CCCN3CCC4)nc2c(F)c1-c1c[nH]c2cccc(F)c12 [P-0448, 4-((1R,5S)-3,8-diazabicyclo[3.2.1]octan-3-yl)-6,8-difluoro-7-(4-fluoro-1H-indol-3-yl)-2-((tetrahydro-1H-pyrrolizin-7a(5H)-yl)methoxy)quinazoline] | 0.0001 to 10 | 10 to 100
